Like-named read-outs stand apart in the source and are kept apart here.
Columns and labels:
[1] = system: HCT 116 colon cancer; test: MTT proliferation inhibition, HCT 116; type: cell-based; details: Homo sapiens, HCT-116, read-out: Proliferation inhibition rate, HCT 116 Colon cancer
Description: (§1) 1. Cytotoxicity Assay Using Human Tumor Cell Lines
(§2) Paclitaxel was used as the positive drug.

[2] = system: breast cancer cell line MCF-7; test: IC50 on breast cancer cell line MCF-7; type: cell-based; details: Homo sapiens, MCF7, 72 h, read-out: MCF-7 (IC50, nM)
Experimental: From the activity evaluation data of the above-mentioned preliminary screen, it can be seen that the series of taxanes derivatives synthesized in the present invention have activity. Afterward, the compounds are investigated to examine their IC50 values on breast cancer cell line MCF-7. […] Experiments for each compound were independently repeated for three times and multiple holes were used in each experiment. The exposure time of drugs was 72 hours.

[3] = system: NCI-H460 non-small cell lung cancer; test: MTT proliferation inhibition, NCI-H460; type: cell-based; details: Homo sapiens, NCI-H460, read-out: Proliferation inhibition rate, NCI-H460 Non-small cell lung cancer
Description: as §1, §2

[4] = system: MDA-MB-436 breast cancer cells; test: MTT proliferation inhibition, MDA-MB-436; type: cell-based; details: Homo sapiens, MDA-MB-436, read-out: Proliferation inhibition rate, MDA-MB-436 Breast cancer
Description: as §1, §2

[5] = system: Du145 prostate cancer; test: MTT proliferation inhibition, Du145; type: cell-based; details: Homo sapiens, DU-145, read-out: Proliferation inhibition rate, DU145 Prostate cancer
Description: as §1, §2

[6] = system: A549 non-small cell lung cancer; test: MTT proliferation inhibition, A549; type: cell-based; details: Homo sapiens, A549, read-out: Proliferation inhibition rate, A549 Non-small cell lung cancer
Description: as §1, §2

[7] = system: HT-29 colon cancer; test: MTT proliferation inhibition, HT-29; type: cell-based; details: Homo sapiens, HT-29, read-out: Proliferation inhibition rate, HT29 Colon cancer
Description: as §1, §2

[8] = system: BGC-823 gastric cancer; test: MTT proliferation inhibition, BGC-823; type: cell-based; details: Homo sapiens, BGC-823, read-out: Proliferation inhibition rate, BGC-823 Gastric cancer
Description: as §1, §2

[9] = system: MCF-7 breast cancer cells; test: MTT proliferation inhibition, MCF-7; type: cell-based; details: Homo sapiens, MCF7, read-out: Proliferation inhibition rate, MCF-7 Breast cancer
Description: as §1, §2

[10] = system: HL-60 leukemia; test: MTT proliferation inhibition, HL-60; type: cell-based; details: Homo sapiens, HL-60, read-out: Proliferation inhibition rate, HL60 Leukemia
Description: as §1, §2

[11] = system: A2780 ovarian cancer; test: MTT proliferation inhibition, A2780; type: cell-based; details: Homo sapiens, A2780, read-out: Proliferation inhibition rate, A2780 Ovarian cancer
Description: as §1, §2

[12] = system: A375 melanoma; test: MTT proliferation inhibition, A375; type: cell-based; details: Homo sapiens, A-375, read-out: Proliferation inhibition rate, A375 Melanoma
Description: as §1, §2

[13] = system: LN-18; test: MTT proliferation inhibition, LN-18; type: cell-based; details: Homo sapiens, LN-18, read-out: Proliferation inhibition rate, LN-18 Gastric canser
Description: as §1, §2

[14] = system: B16 melanoma; test: MTT proliferation inhibition, B16; type: cell-based; details: B16, read-out: Proliferation inhibition rate, B16 Melanoma
Description: as §1, §2

[15] = Caco-2 bidirectional transport, efflux ratio; details: human, Caco-2
Description: (§3) Human-derived colorectal adenocarcinoma cell line Caco-2 cell monolayer model was used to study the bidirectional transport of the target compounds from the apical (AP) side to the basolateral (BL) side and from BL side to AP side. HPLC was used for quantitative analysis to calculate transport parameters, apparent permeability coefficient (Papp) and the efflux ratio.

[16] = system: K562 leukemia; test: MTT proliferation inhibition, K562; type: cell-based; details: Homo sapiens, K562, read-out: Proliferation inhibition rate, K562 Leukemia
Description: as §1, §2

[17] = Caco-2 cell monolayer membrane transport assay (Papp and recovery); type: in vitro ADME; details: human, Caco-2, Caco-2, A-B
Description: Caco-2 Cell Monolayer Membrane Transport Assay
as §3

[18] = system: LNCaP prostate cancer; test: MTT proliferation inhibition, LNCaP; type: cell-based; details: Homo sapiens, read-out: Proliferation inhibition rate, LNCaP Prostate cancer
Description: as §1, §2

[19] = system: Hela cervical cancer; test: MTT proliferation inhibition, HeLa; type: cell-based; details: Homo sapiens, read-out: Proliferation inhibition rate, HeLa Uterin cancer
Description: as §1, §2

[20] = Mean, read-out: Recovery rate in mass, Mean
[21] = Sample-01, read-out: Papp A-B, Sample-01
[22] = Sample-01, read-out: Recovery rate in mass, Sample-01
[23] = Sample-02, read-out: Papp A-B, Sample-02
[24] = Sample-02, read-out: Recovery rate in mass, Sample-02

SMILES: CO[C@H]1C(=O)[C@]2(C)[C@@H](OC(=O)N(C)C)C[C@H]3OC[C@@]3(OC(C)=O)[C@H]2[C@H](OC(=O)c2ccccc2)[C@]23OC(=O)O[C@H]2[C@H](OC(=O)[C@H](O)[C@@H](NC(=O)OC(C)(C)C)c2ccccc2)C(C)=C1C3(C)C [PCMI-14]
- inhibition at 1 µM [1]: 65.5%
- IC50 [2]: 15.4 ± 0.16 nM
- inhibition at 1 µM [3]: 86.9%
- inhibition at 1 µM [4]: 80.2%
- inhibition at 1 µM [5]: 89.8%
- inhibition at 1 µM [6]: 76.2%
- inhibition at 1 µM [7]: 87.3%
- inhibition at 1 µM [8]: 95.8%
- inhibition at 1 µM [9]: 88.5%
- inhibition at 1 µM [10]: 97.5%
- inhibition at 1 µM [11]: 94.2%
- inhibition at 1 µM [12]: 95.3%
- inhibition at 1 µM [13]: 93.5%
- inhibition at 1 µM [14]: 80.3%
- Papp A→B [15]: 19.8 nm/s
- Papp B→A [15]: 190 nm/s
- efflux ratio [15]: 9.58
- inhibition at 1 µM [16]: 92.7%
- Papp A→B ([17]; Mean, read-out: Papp A-B, Mean): 30.4 nm/s
- recovery [17, 20]: 91.3%
- Papp A→B [17, 21]: 32.1 nm/s
- recovery [17, 22]: 95%
- Papp A→B [17, 23]: 28.7 nm/s
- recovery [17, 24]: 87.6%
- inhibition at 1 µM [18]: 85.3%
- inhibition at 1 µM [19]: 99.9%

SMILES: COC(=O)O[C@H]1C[C@H]2OC[C@@]2(OC(C)=O)[C@H]2[C@H](OC(=O)c3ccccc3)[C@]34OC(=O)O[C@H]3[C@H](OC(=O)[C@H](O)[C@@H](NC(=O)OC(C)(C)C)c3ccccn3)C(C)=C([C@@H](OC)C(=O)[C@]12C)C4(C)C [PCMI-18]
- inhibition at 1 µM [1]: 68.3%
- IC50 [2]: 4.12 ± 0.16 nM
- inhibition at 1 µM [3]: 88.6%
- inhibition at 1 µM [4]: 82.3%
- inhibition at 1 µM [5]: 89.7%
- inhibition at 1 µM [6]: 78.7%
- inhibition at 1 µM [7]: 85.2%
- inhibition at 1 µM [8]: 94.3%
- inhibition at 1 µM [9]: 96.2%
- inhibition at 1 µM [10]: 97.8%
- inhibition at 1 µM [11]: 95.7%
- inhibition at 1 µM [12]: 95.1%
- inhibition at 1 µM [13]: 94.7%
- inhibition at 1 µM [14]: 81.2%
- inhibition at 1 µM [16]: 94.5%
- Papp A→B ([17]; Mean, read-out: Papp A-B, Mean): 24.9 nm/s
- recovery [17, 20]: 88.3%
- Papp A→B [17, 21]: 26.5 nm/s
- recovery [17, 22]: 85.6%
- Papp A→B [17, 23]: 23.3 nm/s
- recovery [17, 24]: 90.9%
- inhibition at 1 µM [18]: 84.6%
- inhibition at 1 µM [19]: 98.8%

SMILES: CO[C@H]1C(=O)[C@]2(C)[C@@H](OC)C[C@H]3OC[C@@]3(OC(C)=O)[C@H]2[C@H](OC(=O)c2ccccc2)[C@]23OC(=O)O[C@H]2[C@H](OC(=O)[C@H](O)[C@@H](NC(=O)c2ccccc2)c2ccccc2)C(C)=C1C3(C)C [PCMI-02]
- inhibition at 1 µM [1]: 66.4%
- IC50 [2]: 6.93 ± 0.12 nM
- inhibition at 1 µM [3]: 82.2%
- inhibition at 1 µM [4]: 82.6%
- inhibition at 1 µM [5]: 84.7%
- inhibition at 1 µM [6]: 79.6%
- inhibition at 1 µM [7]: 89%
- inhibition at 1 µM [8]: 94.2%
- inhibition at 1 µM [9]: 93.5%
- inhibition at 1 µM [10]: 95.9%
- inhibition at 1 µM [11]: 94.7%
- inhibition at 1 µM [12]: 89.8%
- inhibition at 1 µM [13]: 96.6%
- inhibition at 1 µM [14]: 84.1%
- inhibition at 1 µM [16]: 94.7%
- recovery [17, 20]: 50.8%
- Papp A→B [17, 21]: 15 nm/s
- recovery [17, 22]: 44.1%
- Papp A→B [17, 23]: 14.7 nm/s
- recovery [17, 24]: 57.4%
- inhibition at 1 µM [18]: 83.7%
- inhibition at 1 µM [19]: 98.2%

SMILES: CO[C@H]1C[C@H]2OC[C@@]2(OC(C)=O)[C@H]2[C@H](OC(=O)c3ccccc3)[C@]34OC(=O)O[C@H]3[C@H](OC(=O)[C@H](O)[C@H](CC(C)C)NC(=O)OC(C)(C)C)C(C)=C([C@@H](OC(=O)N(C)C)C(=O)[C@]12C)C4(C)C [PCMI-10]
- inhibition at 1 µM [1]: 65.6%
- IC50 [2]: 6.44 ± 0.18 nM
- inhibition at 1 µM [3]: 81%
- inhibition at 1 µM [4]: 77.3%
- inhibition at 1 µM [5]: 88%
- inhibition at 1 µM [6]: 70.5%
- inhibition at 1 µM [7]: 86.2%
- inhibition at 1 µM [8]: 91.2%
- inhibition at 1 µM [9]: 85.9%
- inhibition at 1 µM [10]: 97.5%
- inhibition at 1 µM [11]: 95%
- inhibition at 1 µM [12]: 94.2%
- inhibition at 1 µM [13]: 93.7%
- inhibition at 1 µM [14]: 71.4%
- inhibition at 1 µM [16]: 90.6%
- recovery [17, 20]: 37.3%
- Papp A→B [17, 21]: 12.5 nm/s
- recovery [17, 22]: 34%
- Papp A→B [17, 23]: 8.9 nm/s
- recovery [17, 24]: 40.5%
- inhibition at 1 µM [18]: 85.9%
- inhibition at 1 µM [19]: 99.9%

Reference: patent publication US9890175B2, “Taxane compound, and preparation method and use thereof” (JIANGSU TASLY DIYI PHARMACEUTICAL CO., LTD., priority 2013, dated 2018)
